Consider 13 molecules from patent US20240368150A1 (Hoffmann-La Roche Inc., priority 2021, published 2024).

One may read the IC50 as the concentration that inhibits the measured activity by half.

The subject of one test is MV-3 cells. Description: T-cell - TCB - MV3 killing assay (MCSP-TCB, RFP object count by Incucyte). The format is cell-based, human. The conditions noted are these: 5 d; for Emax / MSCP TCB killing MV-3 cells 5 d Emax: normalized: MCSP-TCB only = neutral control, 20 μM reference compound A1 = 100%; for Emax: read-out: MSCP TCB killing MV-3 cells 5 d Emax; for EC50: primary human T-cells + MCSP-TCB, MV-3 RFP cells, read-out: MSCP TCB killing MV-3 cells 5 d EC50.

The target in the next test is hDGKzeta(1-928)-N-His (Homo sapiens (Human), UniProt Q13574). Description: DGKzeta ADP Glo assay (in vitro DGK inhibition). It is filed as biochemical. The conditions noted are these: DLG 125 uM, ATP 50 μM, DGK ζ 2 nM, 1 hour reaction. The method, then:
(§1) DGK α and ζ kinase use ATP to phosphorylate the substrate 1,2-dilauroyl-sn-glycerol (DLG, incorporated in the liposomes). ATP is converted to ADP as a result of this enzymatic reaction. After the kinase reaction, an ATP-depletion reagent is added to terminate the kinase reaction and deplete any remaining ATP, leaving only ADP. Second, a detection reagent is added to simultaneously convert ADP to ATP and allow the newly synthesized ATP to be converted to light using a coupled luciferase/luciferin reaction.
(§2) Purification of both enzymes was performed as previously described by Takahashi et al., PeerJ, 2018 (Takahashi, D.; Sakane, F. Expression and purification of human diacylglycerol kinase alpha from baculovirus-infected insect cells for structural studies. PeerJ 2018, 6, No. e5449).
(§3) A concentrated liposome solution was prepared in assay buffer without DTT and BSA: 2 mM of DLG in 21 mM of total liposome (2 mM DLG/8 mM PS/11 mM PC). […] The reactions were started by addition of DGK α and ζ kinases at 4 nM and 2 nM final concentrations, respectively. After 1 hour reaction, the amount of ADP formed was detected with the ADP-Glo kinase assay (Promega) according to the manufacturer instructions. Compounds were added in 11-points dose response, starting at […], 1:3 dilutions, with a final DMSO concentration of 2%. The multidrop combi was used as a liquid handler and luminescence was read with 0.5 s by the envision reader (PE).

The subject of test [1] is primary human T-cells. Description: Proliferation assay after 5 days (CellTiter-Glo, CD3 stimulation; PBS counter screen). The format is cell-based. The following applies: CD3 stimulation; for Emax proliferation (% activation) / Emax: 5 days, normalized to reference compound A1 as stimulator control = 100%, DMSO neutral control; for EC50: primary human T-cells, CellTiter-Glo after 5 days, EC50 of fitted sigmoidal curve, read-out: Tcell Proliferation CD3 EC50; for Emax: read-out: Emax proliferation (% activation). The method in brief:
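After compound addition to medium-only plates, cells are cultured 5 days, equilibrated to room temperature, mixed with an equal volume of CellTiter-Glo 2.0 and rocked 15 min before luminescence is read. Signal reflects ATP content, taken as proportional to cell number.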
In general terms: Cellular ATP, detected with luciferase, serves as a proxy for viable cell number.

The target of the next test is hDGKalpha(1-735)-N-His (Homo sapiens (Human), UniProt P23743). Briefly: DGKalpha ADP Glo assay (in vitro DGK inhibition). It is filed as biochemical. The following applies: DLG 125 uM, ATP 25 μM, DGK α 4 nM, 1 hour reaction. The method, then: as §1, §2, §3
Chain of hDGKalpha(1-735)-N-His (P23743 whole entry): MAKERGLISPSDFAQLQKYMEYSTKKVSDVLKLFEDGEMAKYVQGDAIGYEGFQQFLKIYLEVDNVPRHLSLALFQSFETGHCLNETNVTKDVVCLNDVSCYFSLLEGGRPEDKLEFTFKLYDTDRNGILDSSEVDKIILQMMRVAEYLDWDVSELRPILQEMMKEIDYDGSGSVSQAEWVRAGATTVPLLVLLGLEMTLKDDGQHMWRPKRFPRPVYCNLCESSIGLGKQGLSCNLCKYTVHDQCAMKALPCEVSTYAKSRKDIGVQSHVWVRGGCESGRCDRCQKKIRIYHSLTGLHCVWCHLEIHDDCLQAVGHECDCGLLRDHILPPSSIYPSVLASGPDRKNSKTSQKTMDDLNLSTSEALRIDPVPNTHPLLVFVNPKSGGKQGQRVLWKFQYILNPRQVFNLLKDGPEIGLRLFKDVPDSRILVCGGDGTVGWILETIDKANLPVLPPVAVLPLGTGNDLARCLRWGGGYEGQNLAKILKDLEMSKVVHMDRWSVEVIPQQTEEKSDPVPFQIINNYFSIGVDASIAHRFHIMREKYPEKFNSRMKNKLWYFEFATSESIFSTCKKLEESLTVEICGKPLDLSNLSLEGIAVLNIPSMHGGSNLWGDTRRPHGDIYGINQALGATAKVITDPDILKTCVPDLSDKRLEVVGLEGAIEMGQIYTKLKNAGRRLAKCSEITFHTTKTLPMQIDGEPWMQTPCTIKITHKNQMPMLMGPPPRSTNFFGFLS
Background: ADP-Glo turns the ADP formed in a reaction into a luminescent signal.

Test [2] concerns primary human T-cells.

Like-named read-outs stand apart in the source and are kept apart here.

Chain of hDGKzeta(1-928)-N-His (Q13574 whole entry): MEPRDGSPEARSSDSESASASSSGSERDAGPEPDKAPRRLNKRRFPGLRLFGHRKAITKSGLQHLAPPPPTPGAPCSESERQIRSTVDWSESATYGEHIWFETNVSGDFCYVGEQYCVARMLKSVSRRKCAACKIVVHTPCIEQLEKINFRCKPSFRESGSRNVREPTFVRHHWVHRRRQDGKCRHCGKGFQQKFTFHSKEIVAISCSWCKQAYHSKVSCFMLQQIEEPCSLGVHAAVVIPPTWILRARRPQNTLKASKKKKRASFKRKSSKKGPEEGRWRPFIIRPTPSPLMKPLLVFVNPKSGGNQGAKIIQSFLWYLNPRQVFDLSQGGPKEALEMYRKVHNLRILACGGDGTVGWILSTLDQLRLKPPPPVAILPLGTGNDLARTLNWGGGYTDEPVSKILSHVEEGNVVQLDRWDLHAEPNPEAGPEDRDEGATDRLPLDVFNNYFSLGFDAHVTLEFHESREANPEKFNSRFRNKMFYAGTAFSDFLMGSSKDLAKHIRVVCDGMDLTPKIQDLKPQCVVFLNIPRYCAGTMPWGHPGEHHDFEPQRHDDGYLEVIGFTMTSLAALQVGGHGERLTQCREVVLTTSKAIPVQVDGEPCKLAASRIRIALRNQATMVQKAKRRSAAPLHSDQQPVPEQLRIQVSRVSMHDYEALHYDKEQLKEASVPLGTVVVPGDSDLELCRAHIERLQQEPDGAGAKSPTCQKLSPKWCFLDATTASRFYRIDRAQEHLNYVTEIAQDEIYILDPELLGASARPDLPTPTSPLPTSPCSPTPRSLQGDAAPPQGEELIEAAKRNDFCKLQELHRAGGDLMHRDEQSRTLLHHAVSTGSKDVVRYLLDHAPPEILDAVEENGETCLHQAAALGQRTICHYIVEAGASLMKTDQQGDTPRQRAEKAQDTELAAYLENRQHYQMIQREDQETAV

Regarding `CC(C)(C)c1nnc(-c2cc3c(cc2F)S(=N)(=O)C[C@H](N)C(=O)N3Cc2ccc(OC(F)(F)F)cc2)o1` (single isomer, unassigned) [Example 517], the Emax with MV-3 cells (Homo sapiens, MV-3, 120 h) is 79%. Also, the EC50 in the test with MV-3 cells was found to be 330 nM; in the test on primary human T-cells [1], 2930 nM; with primary human T-cells [2], 299 nM. In addition, the IC50 turned out to be 316 nM against hDGKzeta(1-928)-N-His and 272 nM on hDGKalpha(1-735)-N-His. Besides, the “Emax proliferation (% activation)” value in the test with primary human T-cells [1] is listed as 90 % activation.

As to `CC(C)(C)c1nnc(-c2cc3c(cc2F)S(=N)(=O)C[C@H](N)C(=O)N3Cc2ccc(OC(F)(F)F)cc2)o1` (single isomer, unassigned) [Example 518], the “MSCP TCB killing MV-3 cells 5 d Emax” value with MV-3 cells is listed as 78%. In addition, the EC50 in the test with MV-3 cells stood at 960 nM; in the test with primary human T-cells [1], 9070 nM; in the test on primary human T-cells [2], 135 nM. Moreover, the figures for the IC50 against hDGKzeta(1-928)-N-His and against hDGKalpha(1-735)-N-His were 639 nM and 442 nM, respectively. Also, the “Emax proliferation (% activation)” value with primary human T-cells [1] amounted to 58 % activation.

Take `N[C@H]1C[S+]([O-])c2cc(F)c(-c3noc(N4CCOC5CC54)n3)cc2N(Cc2ccc(Cl)cc2)C1=O` (single isomer, unassigned; epimer a) [Example 207]: the Emax in the test on MV-3 cells (Homo sapiens, MV-3, 120 h) came to 90%. In addition, the EC50 in the test with MV-3 cells (Homo sapiens, MV-3, 120 h) was found to be 160 nM; in the test on primary human T-cells [1], 1860 nM; with primary human T-cells [2] it was 4380 nM. The IC50 against hDGKzeta(1-928)-N-His was 193 nM; against hDGKalpha(1-735)-N-His, more than 62500 nM. In addition, the “Emax proliferation (% activation)” value with primary human T-cells [1] amounted to 280 % activation.

In the case of `CC(C)(C)c1nnc(-c2cc3c(cc2F)[S+]([O-])C[C@H](N)C(=O)N3Cc2ccc(OC(F)(F)F)cc2)o1` (single isomer, unassigned; epimer a) [Example 452], in the test with MV-3 cells, the “MSCP TCB killing MV-3 cells 5 d Emax” value was determined as 81%. Further, the EC50 in the test with MV-3 cells turned out to be 230 nM; in the test with primary human T-cells [1] (Homo sapiens, T-cell, 120 h), 468 nM; in the test on primary human T-cells [2], 121 nM. In addition, the values for the half-inhibitory concentration (IC50) against hDGKzeta(1-928)-N-His and against hDGKalpha(1-735)-N-His were 400 nM and 340 nM, respectively. The “Emax proliferation (% activation)” value in the test on primary human T-cells [1] came to 165 % activation.

Regarding `CC(C)(C)n1nnc(-c2cc3c(cc2F)S(=O)(=O)C[C@H](NC(=O)CN)C(=O)N3Cc2ccc(Cl)cc2)n1` [Example 29, 2-amino-N-[(3R)-7-(2-tert-butyltetrazol-5-yl)-5-[(4-chlorophenyl)methyl]-8-fluoro-1,1,4-trioxo-2,3-dihydro-1lambda6,5-benzothiazepin-3-yl]acetamide], the Emax in the test with MV-3 cells (Homo sapiens, MV-3, 120 h) came to 95%; with primary human T-cells [1] (Homo sapiens, T-cell, 120 h), 172%. The EC50 is 37 nM with MV-3 cells (Homo sapiens, MV-3, 120 h); 93.6 nM in the test with primary human T-cells [1] (Homo sapiens, T-cell, 120 h); 855 nM in the test on primary human T-cells [2]. Besides, the values for the concentration for half-maximal inhibition (IC50) against hDGKzeta(1-928)-N-His and at hDGKalpha(1-735)-N-His were 33100 nM and more than 62500 nM, respectively.

Take `CC(C)(C)c1nnc(-c2cc3c(cc2F)S(=O)(=O)C[C@H](N)C(=O)N3Cc2ccc(OC(F)(F)F)cc2)o1` [Example 57, (3R)-3-Amino-7-(5-tert-butyl-1,3,4-oxadiazol-2-yl)-8-fluoro-1,1-dioxo-5-[[4-(trifluoromethoxy)phenyl]methyl]-2,3-dihydro-1λ^6,5-benzothiazepin-4-one]: the Emax in the test with MV-3 cells (Homo sapiens, MV-3, 120 h) was determined as 100%; in the test with primary human T-cells [1] (Homo sapiens, T-cell, 120 h) it was 231%. Besides, the EC50 with MV-3 cells (Homo sapiens, MV-3, 120 h) amounted to 50 nM; in the test on primary human T-cells [1] (Homo sapiens, T-cell, 120 h), 32.7 nM; in the test with primary human T-cells [2], 36.7 nM. The IC50 on hDGKzeta(1-928)-N-His is 254 nM; against hDGKalpha(1-735)-N-His it was 210 nM.

Turning to `CC(C)(C)c1nnc(-c2cc3c(cc2F)[S+]([O-])C[C@H](N)C(=O)N3Cc2ccc(OC(F)(F)F)cc2)o1` (stereo partly drawn) [Example 62, (3R)-3-amino-7-(5-tert-butyl-1,3,4-oxadiazol-2-yl)-8-fluoro-1-oxo-5-[[14-(trifluoromethoxy)phenyl]methyl]-2,3-dihydro-1λ^4,5-benzothiazepin-4-one], the Emax in the test with MV-3 cells (Homo sapiens, MV-3, 120 h) came to 81%. The EC50 with MV-3 cells (Homo sapiens, MV-3, 120 h) is 260 nM; with primary human T-cells [1], 721 nM; with primary human T-cells [2], 149 nM. For the same molecule, the values for the IC50 against hDGKzeta(1-928)-N-His and against hDGKalpha(1-735)-N-His were 622 nM and 452 nM, respectively. Besides, the “Emax proliferation (% activation)” value in the test on primary human T-cells [1] was determined as 88 % activation.

Turning to `CC(C)(CO)c1nnc(-c2cc3c(cc2F)S(=O)(=O)C[C@H](N)C(=O)N3Cc2ccc(Cl)cc2)o1` [Example 86, (3R)-3-amino-5-[(4-chlorophenyl)methyl]-8-fluoro-7-[5-(2-hydroxy-1,1-dimethyl-ethyl)-1,3,4-oxadiazol-2-yl]-1,1-dioxo-2,3-dihydro-1λ^6,5-benzothiazepin-4-one], the Emax in the test on MV-3 cells (Homo sapiens, MV-3, 120 h) was determined as 100%; with primary human T-cells [1] (Homo sapiens, T-cell, 120 h), 95%. Moreover, the EC50 was 520 nM with MV-3 cells (Homo sapiens, MV-3, 120 h); 777 nM with primary human T-cells [1] (Homo sapiens, T-cell, 120 h); 4180 nM in the test with primary human T-cells [2]. Moreover, the IC50 at hDGKzeta(1-928)-N-His is 685 nM; against hDGKalpha(1-735)-N-His, 643 nM.

For the molecule `COC(=O)N1CC2CC(c3nnc(-c4cc5c(cc4F)S(=O)(=O)C[C@H](N)C(=O)N5Cc4ccc(Cl)cc4)o3)(C2)C1` [Example 184, methyl 1-[5-[(3R)-3-amino-5-[(4-chlorophenyl)methyl]-8-fluoro-1,1,4-trioxo-2,3-dihydro-1λ^6,5-benzothiazepin-7-yl]-1,3,4-oxadiazol-2-yl]-3-azabicyclo[3.1.1]heptane-3-carboxylate], the Emax in the test on MV-3 cells (Homo sapiens, MV-3, 120 h) came to 79%; in the test with primary human T-cells [1] (Homo sapiens, T-cell, 120 h), 77%. The EC50 in the test with MV-3 cells (Homo sapiens, MV-3, 120 h) amounted to 90 nM; in the test with primary human T-cells [1] (Homo sapiens, T-cell, 120 h), 24.2 nM; with primary human T-cells [2], 109 nM. Besides, the figures for the IC50 on hDGKzeta(1-928)-N-His and against hDGKalpha(1-735)-N-His were 290 nM and 244 nM, respectively.

Take `COC(=O)N1CCC(c2nnc(-c3ccc4c(c3)N(Cc3ccc(OC5CCCC5)cc3)C(=O)[C@@H](N)CS4(=O)=O)o2)C1` (stereo partly drawn) [Example 444, methyl 3-[5-[(3R)-3-amino-5-[[4-(cyclopentoxy)phenyl]methyl]-1,1,4-trioxo-2,3-dihydro-1λ^6,5-benzothiazepin-7-yl]-1,3,4-oxadiazol-2-yl]pyrrolidine-1-carboxylate]: the figures for the IC50 at hDGKzeta(1-928)-N-His and against hDGKalpha(1-735)-N-His were 1910 nM and 6110 nM, respectively. Further, the Emax in the test on primary human T-cells [1] (Homo sapiens, T-cell, 120 h) was 99%. The EC50 was 2370 nM in the test on primary human T-cells [1] (Homo sapiens, T-cell, 120 h) and more than 10000 nM in the test on primary human T-cells [2].

With `N[C@H]1CS(=O)(=O)c2cc(F)c(-c3noc(C4(CO)CCCO4)n3)cc2N(Cc2ccc(Oc3ccccc3)cc2)C1=O` (stereo partly drawn) [Example 521, (3R)-3-amino-8-fluoro-7-[5-[2-(hydroxymethyl)tetrahydrofuran-2-yl]-1,2,4-oxadiazol-3-yl]-1,1-dioxo-5-[(4-phenoxyphenyl)methyl]-2,3-dihydro-1λ^6,5-benzothiazepin-4-one], the figures for the IC50 on hDGKzeta(1-928)-N-His and against hDGKalpha(1-735)-N-His were 338 nM and 3000 nM, respectively. Moreover, the Emax in the test with primary human T-cells [1] (Homo sapiens, T-cell, 120 h) turned out to be 189%. The EC50 stood at 622 nM in the test with primary human T-cells [1] (Homo sapiens, T-cell, 120 h) and 783 nM in the test with primary human T-cells [2].

As for `CN1CCCC(F)(c2nc(-c3cc4c(cc3F)S(=O)(=O)C[C@H](N)C(=O)N4Cc3ccc(Oc4ccccc4)cc3)no2)C1` (stereo partly drawn) [Example 522, (3R)-3-amino-8-fluoro-7-[5-(3-fluoro-1-methyl-3-piperidyl)-1,2,4-oxadiazol-3-yl]-1,1-dioxo-5-[(4-phenoxyphenyl)methyl]-2,3-dihydro-1λ^6,5-benzothiazepin-4-one], the figures for the IC50 against hDGKzeta(1-928)-N-His and against hDGKalpha(1-735)-N-His were 529 nM and 4070 nM, respectively. In the test on primary human T-cells [1] (Homo sapiens, T-cell, 120 h), the Emax came to 161%. Also, the EC50 with primary human T-cells [1] (Homo sapiens, T-cell, 120 h) was found to be 782 nM; with primary human T-cells [2] it was 619 nM.

For `CC(C)(C)c1nnc(-c2cc3c(cc2Cl)S(=O)(=O)C[C@H](N)C(=O)N3Cc2ccc(Cl)cc2)o1` [Example 523, (3R)-3-amino-7-(5-tert-butyl-1,3,4-oxadiazol-2-yl)-8-chloro-5-[(4-chlorophenyl)methyl]-1,1-dioxo-2,3-dihydro-1λ^6,5-benzothiazepin-4-one], the figures for the IC50 against hDGKzeta(1-928)-N-His and against hDGKalpha(1-735)-N-His were 1510 nM and 1290 nM, respectively. In addition, the Emax in the test on primary human T-cells [1] (Homo sapiens, T-cell, 120 h) came to 45%. The EC50 is 462 nM with primary human T-cells [1] (Homo sapiens, T-cell, 120 h) and 5280 nM in the test with primary human T-cells [2].
